In the supplement of paper PMC10307832:

Legend:
Assay in all cases: relative viability (nuclei count vs DMSO), 5 days (fraction); higher = more cells survive
[1] = compound: CC1=CC(=CC=C1)NC2=NC(=CS2)C3=CC=NC=C3 + COc1cc2c(Oc3ccc(NC(=O)C4(C(=O)Nc5ccc(F)cc5)CC4)cc3F)ccnc2cc1OCCCN1CCOCC1 [Foretinib] (partner 0.25 µM)
Outline: (§1)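 Lung cancer cell lines in 1536-well plates got either a single drug or a fixed anchor-drug dose together with five library-drug doses (not always all listed) in √10 steps, by pin tool, on the day after seeding. Nuclei were counted after 5 days, and relative viability is the treated-to-vehicle ratio of nuclei counts. Values are medians of duplicate plates.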

Masitinib + Lapatinib = compound: Cc1ccc(NC(=O)c2ccc(CN3CCN(C)CC3)cc2)cc1Nc1nc(-c2cccnc2)cs1 [Masitinib] + CS(=O)(=O)CCNCc1ccc(-c2ccc3ncnc(Nc4ccc(OCc5cccc(F)c5)c(Cl)c4)c3c2)o1 [Lapatinib] (partner 2 µM)
Outline: as §1

Masitinib + Pemetrexed = compound: Cc1ccc(NC(=O)c2ccc(CN3CCN(C)CC3)cc2)cc1Nc1nc(-c2cccnc2)cs1 [Masitinib] + Nc1nc2[nH]cc(CCc3ccc(C(=O)N[C@@H](CCC(=O)O)C(=O)O)cc3)c2c(=O)[nH]1 [Pemetrexed] (partner 0.2 µM)
Outline: as §1

Masitinib + OSI-027 = compound: Cc1ccc(NC(=O)c2ccc(CN3CCN(C)CC3)cc2)cc1Nc1nc(-c2cccnc2)cs1 [Masitinib] + COc1cccc2cc(-c3nc([C@H]4CC[C@H](C(=O)O)CC4)n4ncnc(N)c34)[nH]c12 [OSI-027] (partner 0.5 µM)
Outline: as §1

Cell Line | relative viability ([1]; first compound 0.08 µM) | relative viability ([1]; first compound 0.253 µM) | relative viability ([1]; first compound 0.8 µM) | relative viability ([1]; first compound 2.53 µM) | relative viability ([1]; first compound 8 µM) | relative viability (Masitinib + Lapatinib; first compound 0.01 µM) | relative viability (Masitinib + Lapatinib; first compound 0.03162 µM) | relative viability (Masitinib + Lapatinib; first compound 0.1 µM) | relative viability (Masitinib + Lapatinib; first compound 0.3162 µM) | relative viability (Masitinib + Lapatinib; first compound 1 µM) | relative viability (Masitinib + Pemetrexed; first compound 0.01 µM) | relative viability (Masitinib + Pemetrexed; first compound 0.03162 µM) | relative viability (Masitinib + Pemetrexed; first compound 0.1 µM) | relative viability (Masitinib + Pemetrexed; first compound 0.3162 µM) | relative viability (Masitinib + Pemetrexed; first compound 1 µM) | relative viability (Masitinib + OSI-027; first compound 0.01 µM) | relative viability (Masitinib + OSI-027; first compound 0.03162 µM) | relative viability (Masitinib + OSI-027; first compound 0.1 µM) | relative viability (Masitinib + OSI-027; first compound 0.3162 µM) | relative viability (Masitinib + OSI-027; first compound 1 µM)
COR-L23 | 0.986 | 0.945 | 0.886 | 0.864 | 0.87 | 0.715 | 1.2 | 0.896 | 1.2 | 1.17 | 0.214 | 0.227 | 0.194 | 0.205 | 0.196 | 0.893 | 0.737 | 0.776 | 0.751 | 0.738
COR-L 105 | 1.16 | 0.977 | 1.01 | 1.01 | 0.562 | 0.298 | 0.379 | 0.4 | 0.36 | 0.312 | 1.04 | 1.09 | 1.1 | 0.989 | 0.997 | 0.682 | 0.705 | 0.764 | 0.613 | 0.533
EKVX | 0.941 | 0.726 | 0.578 | 0.733 | 0.75 | – | 0.165 | 0.198 | 0.158 | 0.196 | 0.375 | 0.511 | 0.466 | – | 0.35 | – | 0.533 | 0.566 | 0.673 | 0.599
EMC-BAC-2 | 0.888 | 0.993 | 1 | 0.948 | 0.879 | 0.793 | 0.911 | 0.837 | 0.9 | 0.966 | 0.435 | 0.453 | 0.447 | 0.429 | 0.328 | 0.379 | 0.381 | 0.379 | 0.379 | 0.354
EPLC-272H | 0.657 | 0.711 | 0.623 | 0.597 | 0.723 | 0.948 | 0.898 | 0.951 | 0.914 | 0.827 | 0.32 | – | 0.348 | 0.399 | 0.249 | 0.257 | 0.274 | 0.281 | 0.315 | 0.286
H3255 | 0.895 | 0.464 | 0.909 | 0.822 | 0.875 | – | 0.268 | 0.243 | 0.213 | 0.248 | 0.57 | 0.59 | 0.583 | 0.54 | 0.573 | 0.588 | 0.652 | 0.617 | 0.504 | 0.538
HARA | 0.522 | 0.952 | 0.848 | 0.769 | 0.821 | 0.582 | 0.78 | 0.855 | 0.675 | 0.719 | 0.217 | 0.324 | 0.24 | – | 0.279 | – | 0.44 | 0.521 | 0.384 | 0.315
HCC-15 | 0.942 | 1.01 | 0.928 | 1.07 | 0.922 | 0.561 | 0.919 | 0.677 | 0.917 | 0.852 | 0.226 | 0.24 | 0.212 | 0.203 | 0.226 | 0.635 | 0.68 | 0.641 | 0.588 | 0.629
HCC-78 | – | 0.484 | 0.558 | 0.537 | 0.568 | 0.871 | 0.62 | 0.743 | 0.334 | 0.625 | 0.933 | 0.877 | 0.887 | 0.987 | 0.893 | 0.36 | 0.337 | 0.364 | 0.337 | 0.335
HCC-366 | 0.859 | 0.89 | 0.883 | 0.885 | 0.9 | 0.731 | 1.1 | 0.785 | 0.945 | 1.13 | – | 0.174 | 0.148 | 0.137 | 0.146 | – | 1 | – | 0.792 | 0.78
HCC-827 | 1.02 | 1 | 0.997 | 1.02 | 0.958 | 0.198 | 0.189 | 0.19 | 0.168 | 0.201 | 0.264 | 0.278 | 0.255 | 0.185 | 0.257 | 0.728 | 0.704 | 0.832 | 0.84 | 0.692
HOP-62 | 1.08 | 1.07 | 1.12 | 1.15 | 1.04 | 0.814 | 1.11 | 0.854 | 1.31 | 0.937 | 0.286 | 0.325 | 0.323 | 0.462 | 0.404 | 0.759 | 0.866 | 0.923 | 0.929 | 0.837
LC-2-ad | 0.836 | – | 0.901 | 0.909 | 1.07 | 0.762 | 1.02 | 0.874 | 0.994 | 0.962 | 0.265 | 0.29 | 0.268 | 0.248 | 0.247 | 0.862 | 0.904 | 0.929 | 0.738 | 0.768
LCLC-97TM1 | 0.966 | 0.906 | 0.841 | 1.02 | 0.929 | 0.767 | 1.13 | 0.673 | 1.57 | 0.715 | 0.168 | 0.154 | 0.169 | 0.173 | 0.168 | – | 0.534 | 0.559 | 0.568 | 0.516
LK-2 | – | 1.18 | 1.36 | – | 1.67 | 1.06 | 0.836 | 1.12 | 1.06 | 0.941 | 0.291 | 0.34 | 0.31 | 0.281 | 0.217 | 0.194 | 0.214 | 0.198 | 0.201 | 0.243
LOU-NH91 | 0.794 | 0.853 | 0.807 | 0.896 | 0.903 | 0.781 | 0.633 | 0.786 | 0.563 | 0.708 | 0.363 | 0.312 | 0.402 | 0.365 | 0.376 | 0.702 | 0.667 | 0.723 | 0.58 | 0.655
